Measurements reported in patent EP0404162A1, “Composition for treating pigmentation” (priority 1989, dated 1990).

Tests used:
[1] = Toxicity (LD50), subcutaneous administration, rats; conditions: rat, in vivo, sc, read-out: LD₅₀
Description: (§1) The toxicity of kojic acid which is the effective ingredient of the present invention is extremely low; LD₅₀ is 2.050 mg/kg in mice and 2.260 mg/kg in rats, by subcutaneous administration. Therefore, the present invention is quite safe as a medicament.

[2] = Toxicity (LD50), subcutaneous administration, mice; conditions: mouse, in vivo, sc, read-out: LD₅₀
Description: as §1

Compound: O=c1cc(CO)occ1O [kojic acid, 5-oxy-2-oxymethyl-γ-pyrone]
- LD50 [1]: 2.26 mg/kg
- LD50 [2]: 2.05 mg/kg
